Experimental data from patent US20100168210A1, “T-Cell Cytokine-Inducing Surface Molecules and Methods of Use” (priority 2007, published 2010).

Legend:
[1] = system: LPS-stimulated TNFα and IL-1β production; test: LPS-stimulated Mφ cytokine production; format: cell-based, human; settings: FIG. 14
Source text: Using the T cell membrane-Mφ cell contact bioassay, small molecule antagonists were identified that differentially block anti-CD3/anti-CD28 activated T-cell mediated—but not LPS stimulated—TNFα and IL-1β production from peripheral blood resident CD14^+ Mφ. Several kinase inhibitors were selected and assessed for the effects of these compounds in blocking TNFα and/or IL-1β production using a validated T-cell membrane-Mφ contact bioassay. […] Therefore, the activated T-cell membrane-Mt contact bioassay using human T-cells and Mφ can be used to establish high-throughput screens with recombinant TCISM (once identified and cloned) to identify orally-active, small molecule antagonists that specifically target adaptive, but not LPS-mediated, innate immunity. Some orally active, small molecule TNFα and/or IL-1β inhibitors which interfere specifically with T-cell mediated Mφ activation, leading to enhanced cytokine production but not LPS-mediated Mφ cytokine release, have a favorable therapeutic/side effect profile in T-cell mediated skin diseases such as Ps.

[2] = system: T-cell-mediated TNFα production from human Mφ; test: T cell membrane-Mφ cell contact bioassay (activated T-cell mediated cytokine production); format: cell-based; settings: anti-CD3/anti-CD28 activated T-cell membranes; CD14+ Mφ; FIG. 14
Description: Primary T cells or H9 cells were washed with cold PBS and cell pellets were resuspended in freshly made 1% paraformaldehyde at 5×10^6 cells/ml. Cells were fixed on ice for 2 hours, and then washed with 20× volume of cold PBS three times. Following the third wash, the cells were kept in PBS at 4° C. overnight to allow diffusion of paraformaldehyde. Cells were centrifuged and washed one more time. The fixed T cells were resuspended in medium at 1×10^7 cells/ml and dispensed into a 96 well U bottom plate at about 1×10^6/ml THP-1 cells 100 μl per well. Primary T cells or H9 cells (100 μl per well) were added at 8×, 4×, and 2×10^6 cells/ml. The plates were incubated at 37° C., in humidified 5% CO2 for 48 hours. Plates were centrifuged at 1,500 rpm for 5 minutes and supernatant (120 μl) transferred into a fresh plate. The supernatant was stored at −20° C. until used. […]
Using the T cell membrane-Mφ cell contact bioassay, small molecule antagonists were identified that differentially block anti-CD3/anti-CD28 activated T-cell mediated—but not LPS stimulated—TNFα and IL-1β production from peripheral blood resident CD14^+ Mφ. Several kinase inhibitors were selected and assessed for the effects of these compounds in blocking TNFα and/or IL-1β production using a validated T-cell membrane-Mφ contact bioassay. […]

[3] = system: Murine Collagen-Induced Arthritis; test: Murine Collagen-Induced Arthritis study; format: in vivo, mice; settings: 50 mg/kg P.O. once per day beginning at day +1; day +13 after induction; FIG. 18
Description: Mice were immunized with CII+CFA on day 0 and boosted on day 21 with CII+IFA. A total of 10 DBA female mice per group were used. Drugs were administered as shown and started on the first day of initial signs of paw swelling/arthritis. Mean arthritis score (see data below) was assessed according to the procedure of Bendele et al., Arthritis & Rheumatism, 2000, 43(12), pp 2648-2659. […] Mice were treated 8 days after showing signs of collagen induced arthritis.
FIG. 18 is a joint histopathology of representative mice. In FIG. 18, panel A denotes a knee joint obtained from a DBA mouse with collagen-induced arthritis treated with an isotype-control rat-anti-mouse MAb (negative control) showing that […] over the course of this control treatment.

For `C[S+]([O-])c1ccccc1-n1cnc(-c2ccc(F)cc2)c1-c1ccncc1` (stereo not drawn) [Compound C], the “Effect on LPS-stimulated TNFα and IL-1β production” value [1] was “without having any significant effect”, the “Inhibition of T-cell-mediated TNFα production from human Mφ” value [2] was “completely inhibit” and the “Joint histopathology (knee joint inflammation)” value [3] was “reduced inflammation”.
